From patent US12174198B2, “Methods of characterizing condensate-associated characteristics of compounds and uses thereof” (Dewpoint Therapeutics, Inc., priority 2019, dated 2024)

Tests used:
Format in all cases: physicochemical
[1] = target: T1, PGL-3 condensates (Caenorhabditis elegans, UniProt G5EBV6); assay: Fluorescence imaging of dye partitioning in PGL-3 condensates (I-in, I-out); conditions: for Ratio of intensity inside:outside PGL-3 Condensates Day 1 / Ratio of intensity inside:outside PGL-3 Condensates Day 2 / Ratio of intensity inside:outside PGL-3 Condensates Average: I-in:I-out; for Ratio of intensity inside:outside PGL-3 Condensates Day 1 / Ratio of intensity inside:outside PGL-3 Condensates Day 2 / Ratio of intensity inside:outside PGL-3 Condensates Average / Intensity Inside with Dye Average / Intensity Inside with Dye 1 / Intensity Inside with Dye 2 / Intensity Inside with Dye 3 / Intensity Outside with Dye Average / Intensity Outside with Dye 1 / Intensity Outside with Dye 2 / Intensity Outside with Dye 3: 10 μM dye; for Ratio of intensity inside:outside PGL-3 Condensates Average: average of two days; for Intensity Inside with Dye Average / Intensity Inside with Dye 1 / Intensity Inside with Dye 2 / Intensity Inside with Dye 3 / Intensity Inside Dye-No Dye: inside PGL-3 condensate; for Intensity Inside with Dye Average / Intensity Inside with Dye 1 / Intensity Inside with Dye 2 / Intensity Inside with Dye 3 / Intensity Outside with Dye Average / Intensity Outside with Dye 1 / Intensity Outside with Dye 2 / Intensity Outside with Dye 3: 5 μM protein; for Intensity Inside with Dye Average / Intensity Outside with Dye Average: average of three images; for Intensity Inside with Dye Average / Intensity Inside with Dye 1 / Intensity Inside with Dye 2 / Intensity Inside with Dye 3 / Intensity Inside Dye-No Dye / Intensity Outside with Dye Average / Intensity Outside with Dye 1 / Intensity Outside with Dye 2 / Intensity Outside with Dye 3 / Intensity Outside (Dye-No Dye): one day of experiments; for Intensity Inside with Dye 1 / Intensity Outside with Dye 1: image 1; for Intensity Inside with Dye 2 / Intensity Outside with Dye 2: image 2; for Intensity Inside with Dye 3 / Intensity Outside with Dye 3: image 3; for Intensity Inside Dye-No Dye / Intensity Outside (Dye-No Dye): background corrected; for Intensity Outside with Dye Average / Intensity Outside with Dye 1 / Intensity Outside with Dye 2 / Intensity Outside with Dye 3 / Intensity Outside (Dye-No Dye): outside PGL-3 condensate
T1 sequence (G5EBV6 1-693): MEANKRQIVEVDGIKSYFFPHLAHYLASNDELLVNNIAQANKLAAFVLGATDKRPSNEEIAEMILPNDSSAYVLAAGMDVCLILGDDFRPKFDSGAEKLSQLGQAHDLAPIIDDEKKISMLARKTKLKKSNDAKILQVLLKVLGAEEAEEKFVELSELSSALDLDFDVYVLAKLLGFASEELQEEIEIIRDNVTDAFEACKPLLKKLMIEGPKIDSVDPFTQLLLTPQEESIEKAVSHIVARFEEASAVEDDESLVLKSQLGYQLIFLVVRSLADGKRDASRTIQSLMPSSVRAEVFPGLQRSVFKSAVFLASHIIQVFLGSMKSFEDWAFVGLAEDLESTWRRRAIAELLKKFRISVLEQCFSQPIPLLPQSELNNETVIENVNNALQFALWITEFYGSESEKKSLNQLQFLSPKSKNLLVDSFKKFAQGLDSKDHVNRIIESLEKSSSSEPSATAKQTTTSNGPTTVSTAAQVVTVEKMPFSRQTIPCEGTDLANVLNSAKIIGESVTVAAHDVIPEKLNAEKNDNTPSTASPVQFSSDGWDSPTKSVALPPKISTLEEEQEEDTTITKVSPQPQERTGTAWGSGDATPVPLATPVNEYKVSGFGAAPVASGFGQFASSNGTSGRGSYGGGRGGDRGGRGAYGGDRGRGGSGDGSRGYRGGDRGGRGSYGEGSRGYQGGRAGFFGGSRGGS
Experimental: (§1) All dye-stocks were stored as 1 mM solutions in 100% DMSO. The dyes were dissolved in dilution buffer (DB: 14.7 mM Tris, pH 7.25, 1 mM DTT) to yield 11.765 μM dye in 1.1765 DMSO. 17 μl of dye was distributed in a 384 well non-binding plate (Greiner).
(§2) Either SNAP-tagged FUS protein or tag-free PGL-3 protein was thawed at room temperature for at least 10 min, and the buffer was exchanged to partitioning buffer (PB: 50 mM Tris pH 7.25, 500 mM KCl, 5% Glycerol, and 1 mM DTT). The protein was then diluted to 33.3 μM in PB. 3 μl of protein solution were added to the 384 well plate to initiate phase separation, yielding 20 μl of 5 μM protein and 10 μM dye in 75 mM KCl, 0.75% Glycerol, 20 mM Tris, 1 mM DTT, and 1% DMSO or for no dye control reactions, 20 μl of 5 μM protein in 75 mM KCl, 0.75% Glycerol, 20 mM Tris, 1 mM DTT.
(§3) A spinning disk confocal microscope was used to acquire images of the samples. A 60×oil high-NA objective lens was used to capture the condensate droplets. The laser power was set to 20% and the exposure times were adjusted to the fluorescence emission intensity specific for each dye. Exposure times ranged from 1-1000 ms. Appropriate filter settings were used, matching the excitation and emission spectra of the respective dyes. Three images per well were taken. The background signal of protein droplets in the absence of dye was recorded for all applied imaging conditions.
(§4) Fluorescence intensity was measured inside one exemplary target condensate (Intensity inside, I-in) per image and in a region next to the exemplary target condensate (Intensity outside, I-out) by hand using the image analysis software Fiji. An example depicting the regions measured is shown FIG. 2A. Three I-in and three I-out values were measured in total for each dye in each experiment and were averaged. The measured I-in and I-out values for FUS-SNAP condensates on one day of experiments are shown in Table 2 and Table 3, respectively. The measured I-in and I-out values for PGL-3 condensates on one day of experiments are shown in Table 4 and Table 5, respectively. All values were background corrected, based on the background images (no dye controls) taken with the same microscope conditions.
(§5) The ratios of the average intensity measured in the target condensates and outside of the target condensates were calculated by dividing I-in by I-out, although dividing I-out by I-in could also have been used. The I-in:I-out ratios determined from the two different days of experiments were then averaged. The average I-in:I-out ratios for FUS-SNAP condensates are shown in FIG. 3 and the average I-in:I-out ratios for PGL-3 condensates are shown in FIG. 4. The standard deviation between the two experiments is represented by the error bars in FIG. 3 and FIG. 4.

[2] = system: FUS-SNAP condensates versus PGL-3 condensates; assay: Condensate preference: ratio of FUS-SNAP I-in:I-out to PGL-3 I-in:I-out; conditions: average FUS-SNAP I-in:I-out divided by average PGL-3 I-in:I-out
Experimental: as §5

[3] = target: T2, FUS-SNAP condensates (Homo sapiens, UniProt P35637); assay: Fluorescence imaging of dye partitioning in FUS-SNAP condensates (I-in, I-out); conditions: for Ratio of intensity inside:outside FUS-SNAP Condensates Day 1 / Ratio of intensity inside:outside FUS-SNAP Condensates Day 2 / Ratio of intensity inside:outside FUS-SNAP Condensates Average: I-in:I-out; for Ratio of intensity inside:outside FUS-SNAP Condensates Day 1 / Ratio of intensity inside:outside FUS-SNAP Condensates Day 2 / Ratio of intensity inside:outside FUS-SNAP Condensates Average / Intensity Inside with Dye Average / Intensity Inside with Dye 1 / Intensity Inside with Dye 2 / Intensity Inside with Dye 3 / Intensity Outside with Dye Average / Intensity Outside with Dye 1 / Intensity Outside with Dye 2 / Intensity Outside with Dye 3: 10 μM dye; for Ratio of intensity inside:outside FUS-SNAP Condensates Average: average of two days; for Intensity Inside with Dye Average / Intensity Inside with Dye 1 / Intensity Inside with Dye 2 / Intensity Inside with Dye 3 / Intensity Inside Dye-No Dye: inside FUS-SNAP condensate; for Intensity Inside with Dye Average / Intensity Inside with Dye 1 / Intensity Inside with Dye 2 / Intensity Inside with Dye 3 / Intensity Outside with Dye Average / Intensity Outside with Dye 1 / Intensity Outside with Dye 2 / Intensity Outside with Dye 3: 5 μM protein; for Intensity Inside with Dye Average / Intensity Outside with Dye Average: average of three images; for Intensity Inside with Dye Average / Intensity Inside with Dye 1 / Intensity Inside with Dye 2 / Intensity Inside with Dye 3 / Intensity Inside Dye-No Dye / Intensity Outside with Dye Average / Intensity Outside with Dye 1 / Intensity Outside with Dye 2 / Intensity Outside with Dye 3 / Intensity Outside (Dye-No Dye): one day of experiments; for Intensity Inside with Dye 1 / Intensity Outside with Dye 1: image 1; for Intensity Inside with Dye 2 / Intensity Outside with Dye 2: image 2; for Intensity Inside with Dye 3 / Intensity Outside with Dye 3: image 3; for Intensity Inside Dye-No Dye / Intensity Outside (Dye-No Dye): background corrected; for Intensity Outside with Dye Average / Intensity Outside with Dye 1 / Intensity Outside with Dye 2 / Intensity Outside with Dye 3 / Intensity Outside (Dye-No Dye): outside FUS-SNAP condensate
T2 sequence (P35637 1-526): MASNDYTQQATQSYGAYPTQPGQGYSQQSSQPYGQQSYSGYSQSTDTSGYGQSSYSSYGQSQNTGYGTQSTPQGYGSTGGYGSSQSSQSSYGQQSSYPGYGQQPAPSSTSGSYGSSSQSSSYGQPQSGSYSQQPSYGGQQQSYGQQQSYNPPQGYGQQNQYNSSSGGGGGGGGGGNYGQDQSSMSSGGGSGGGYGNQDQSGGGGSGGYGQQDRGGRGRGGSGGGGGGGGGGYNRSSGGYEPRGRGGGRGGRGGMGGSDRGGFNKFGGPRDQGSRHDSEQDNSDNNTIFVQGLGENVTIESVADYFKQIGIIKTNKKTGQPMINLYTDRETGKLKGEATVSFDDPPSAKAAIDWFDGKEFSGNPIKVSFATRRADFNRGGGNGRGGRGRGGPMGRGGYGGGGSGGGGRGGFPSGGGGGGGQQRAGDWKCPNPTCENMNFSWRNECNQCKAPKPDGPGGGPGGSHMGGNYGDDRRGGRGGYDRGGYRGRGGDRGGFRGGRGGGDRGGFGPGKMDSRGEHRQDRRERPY
Experimental: as §1, §2, §3, §4, §5

| Intensity Inside with Dye Average [1] | Intensity Inside with Dye 1 [1] | Intensity Inside with Dye 2 [1] | Intensity Inside with Dye 3 [1] | Intensity Inside Dye-No Dye [1] | Intensity Outside with Dye Average [1] | Intensity Outside with Dye 1 [1] | Intensity Outside with Dye 2 [1] | Intensity Outside with Dye 3 [1] | Intensity Outside (Dye-No Dye) [1] | Intensity Inside with Dye Average [3] | Intensity Inside with Dye 1 [3] | Intensity Inside with Dye 2 [3] | Compound | Ratio of intensity inside:outside PGL-3 Condensates Day 1 [1] | Ratio of intensity inside:outside PGL-3 Condensates Day 2 [1] | Ratio of intensity inside:outside PGL-3 Condensates Average [1] | Ratio of FUS-SNAP:PGL-3 [2] | Ratio of intensity inside:outside FUS-SNAP Condensates Day 1 [3] | Ratio of intensity inside:outside FUS-SNAP Condensates Day 2 [3] | Ratio of intensity inside:outside FUS-SNAP Condensates Average [3] | further results |
| --- | --- | --- | --- | --- | --- | --- | --- | --- | --- | --- | --- | --- | --- | --- | --- | --- | --- | --- | --- | --- | --- |
| 3038.9 | 2939.4 | 3141.8 | 3035.4 | 2892.4 | 2837.5 | 2781.8 | 2905.7 | 2825.1 | 2732.2 | 4669.4 | 4600.2 | 4189.8 | O=C(CCCC[C@@H]1SCC2NC(=O)NC21)NCCNC(=O)c1ccc(-c2c3ccc(=O)cc-3oc3ccc(O)cc23)c(C(=O)O)c1 (stereo partly shown) [Dye 13, Biotin-4-Fluorescein] | 1.1 | 1.1 | 1.1 | 2.0 | 2.1 | 2.1 | 2.1 | Intensity Inside with Dye 3 [3]: 5218.3; Intensity Inside Dye-No Dye [3]: 4534.2; Intensity Outside with Dye Average [3]: 2242.3; Intensity Outside with Dye 1 [3]: 2286.6; Intensity Outside with Dye 2 [3]: 2244.6; Intensity Outside with Dye 3 [3]: 2195.6; Intensity Outside (Dye-No Dye) [3]: 2138.2 |
| 5674.9 | 5747.5 | 6281.4 | 4996.0 | 5528.4 | 5893.8 | 5900.4 | 6581.6 | 5199.5 | 5788.5 | 5756.6 | 6139.7 | 6105.5 | Polysucrose 40-fluorescein isothiocyanate conjugate [Dye 10] | 1.0 | 0.9 | 0.9 | 1.1 | 1.0 | 1.1 | 1.1 | Enrichment of dye in the condensate (fluorescent images) ([3]; FIG. 1, exemplary images of Example 2, condensate type not stated): not enriched in the condensate; Intensity Inside with Dye 3 [3]: 5024.6; Intensity Inside Dye-No Dye [3]: 5621.4; Intensity Outside with Dye Average [3]: 5505.3; Intensity Outside with Dye 1 [3]: 5878.5; Intensity Outside with Dye 2 [3]: 5846.2; Intensity Outside with Dye 3 [3]: 4791.0; Intensity Outside (Dye-No Dye) [3]: 5401.2 |
